Values joined by “and” are separate entries in the source; they are usually repeats but may differ in a detail not shown here. Equal values may be shown once. A value given as a limit tells only on which side of the number the result lay.

A word on the EC50: it is the concentration needed to bring the measured effect to its halfway point.

The assay has as its system mouse norovirus. Kind of assay: Mouse Norovirus (MNV) assay in RAW cells. The settings on record: murine norovirus.
Setting [1] is: Table 8, N/A = assayed but no EC50 value could be measured.

For `CNC(=O)c1cn([C@@H]2O[C@H](CO)[C@@H](O)[C@H]2O)c2nc(C)nc(N)c12` [Compound 39], the EC50 under setting [1] is greater than 100 µM.

Regarding `Cc1nc(N)c2c(C(N)=O)cn([C@H]3CCCO3)c2n1` [Compound 110], under setting [1], the EC50 is greater than 100 µM. On to `CCc1nc(N)c2c(C(N)=O)cn([C@@H]3O[C@H](CO)[C@@H](O)[C@H]3O)c2n1` [Compound 13], for which the EC50 under setting [1] is greater than 200 µM.

Under setting [1], `Cc1nc(N)c2c(C(N)=O)cn([C@@H]3O[C@H](CO)[C@@H](O)[C@@H]3O)c2n1` [Compound 9] returned an EC50 of 50 µM.

For `Cc1nc(N)c2c(C(N)=O)cn([C@@H]3O[C@H](CO)[C@@H](O)[C@@]3(C)O)c2n1` [Compound 87], the EC50 under setting [1] is greater than 100 µM. Take `CCOP(=O)(CCO[C@H]1O[C@@H](n2cc(C#N)c3c(Cl)nc(C)nc32)[C@H](O)[C@@H]1O)OCC` [Compound 123]: the EC50 under setting [1] was greater than 100 µM. Still for that read-out and setting: the same measure for `Cc1nc(N)c2ccn([C@@H]3O[C@H](CO)[C@@H](O)[C@H]3O)c2n1` [Compound 48]: greater than 100 µM; for `CC(=O)Nc1nc(C)nc2c1c(C(N)=O)cn2[C@@H]1O[C@H](COC(C)=O)[C@@H](OC(C)=O)[C@H]1OC(C)=O` [Compound 128]: greater than 100 µM; for `Cc1nc(N)c2c(C(N)=O)cn([C@@H]3O[C@H](COCc4ccccc4)[C@@H](O)[C@H]3O)c2n1` [Compound 19]: greater than 100 µM. The same measure, in the same setting: the same measure for `Cc1nc(N)c2c(I)cn([C@@H]3O[C@H](CO)[C@@H](O)[C@H]3O)c2n1` [Compound 14]: greater than 100 µM.

With `Cc1nc(N)c2c(C(N)=O)c(Br)n([C@@H]3O[C@H](CO)[C@@H](O)[C@H]3O)c2n1` [Compound 44], the EC50 under setting [1] is greater than 100 µM. Still for that read-out and setting: in the case of `Cc1nc(N)c2c(C(N)=O)cn([C@@H]3O[C@H](OCCP(=O)(O)O)[C@@H](O)[C@H]3O)c2n1` [Compound 125] it was greater than 100 µM; in that of `CCCCCCCCCCCCCCCOCCCOP(=O)(O)COC[C@H]1O[C@@H](n2cc(C(N)=O)c3c(N)nc(C)nc32)[C@@H]2OC(C)(C)O[C@@H]21` [Compound 22], greater than 100 µM.

The compound `CCCCCCCCCCCCCCCCOCCCOC(=O)[C@H](C)NP(=O)(OC[C@H]1O[C@@H](n2cc(C(N)=O)c3c(N)nc(C)nc32)[C@H](O)[C@@H]1O)Oc1ccccc1` (stereo partly shown) [Compound 139] displayed an EC50 (Table 7) of 2.3 µM. With `CCCCCCCCCCCCCCCCOCCCOP(=O)(O)OC[C@H]1O[C@@H](n2cc(C(N)=O)c3c(N)nc(C)nc32)[C@H](O)[C@@H]1O` [Compound 79], the EC50 under setting [1] was greater than 100 µM. `Cc1ncc2c(C(=O)O)cn([C@@H]3O[C@H](CO)[C@@H](O)[C@H]3O)c2n1` [Compound 34] registered an EC50 under setting [1] greater than 100 µM. In turn, `Cc1nc(N)c2c(C#N)cn([C@@H]3O[C@H](CO)[C@@H](O)[C@H]3O)c2n1` [Compound 11] had an EC50 under setting [1] greater than 121 µM. Same read-out and setting: the same measure for `Cc1nc(Cl)c2c(C#N)cn([C@@H]3O[C@H](CO)[C@@H](O)[C@H]3O)c2n1` [Compound 29]: greater than 100 µM; for `COc1ccc2cc([C@@H](C)C(=O)OC[C@H]3O[C@@H](n4cc(C(N)=O)c5c(N)nc(C)nc54)[C@@H]4OC(C)(C)O[C@@H]43)ccc2c1` [Compound 65]: greater than 100 µM; for `Cc1nc(Cl)c2c(C#N)cn([C@@H]3O[C@H](O)[C@@H](O)[C@H]3O)c2n1` [Compound 117]: greater than 100 µM.

As to `CCOP(=O)(CO[C@@H]1C=C[C@H](n2cc(C#N)c3c(Cl)nc(C)nc32)O1)OCC` [Compound 116], the EC50 under setting [1] was greater than 100 µM. Under “Table 7”, `Cc1nc(N)c2c(C(N)=O)cn([C@@H]3O[C@H](COP(=O)(N[C@@H](C)C(=O)OCc4ccccc4)Oc4ccccc4)[C@@H](O)[C@H]3O)c2n1` (stereo partly shown) [Compound 107] came in with an EC50 of 18.1 µM. On the same count and under the same terms, the same measure for `Cc1nc(N)c2c(C(N)=O)cn([C@@H]3O[C@H](COC(=O)[C@@H](N)Cc4ccccc4)[C@@H](O)[C@H]3O)c2n1` [Compound 5]: 2.2 µM. Regarding `Cc1nc(N)c2c(C(N)=O)cn([C@@H]3O[C@H](COP(=O)(N[C@@H](C)C(=O)OCc4ccccc4)N[C@H](C)C(=O)OCc4ccccc4)[C@@H](O)[C@H]3O)c2n1` [Compound 126], the EC50 (Table 7) was 33.6 µM and 38.9 µM.

Take `Cc1nc(N)c2c(C(N)=O)cn([C@@H]3O[C@H](CN)[C@@H](O)[C@H]3O)c2n1` [Compound 108]: the EC50 under setting [1] is greater than 100 µM.

The compound `Cc1nc(N)c2c(C(N)=O)cn([C@@H]3O[C@H](CO)[C@H]4OC(C)(C)O[C@H]43)c2n1` [Compound 20] displayed an EC50 under setting [1] greater than 20 µM. On the same count and under the same terms, the same measure for `Cc1nc(/N=C/N(C)C)c2c(C(N)=O)cn([C@@H]3O[C@H](CO)[C@@H](O)[C@H]3O)c2n1` [Compound 127]: 5.5 µM. Still for that read-out and setting: the same measure for `N#Cc1nc(N)c2c(C(N)=O)cn([C@@H]3O[C@H](CO)[C@@H](O)[C@H]3O)c2n1` [Compound 89]: greater than 100 µM. On the same count and under the same terms, the same measure for `Cc1nc(N)c2c(C(N)=O)c[nH]c2n1` [Compound 32]: greater than 100 µM. Turning to `Cc1nc(N)c2c(C(N)=O)cn([C@@H]3O[C@H](COC(=O)[C@@H](NC(=O)OCC4C5C=CC=CC5C5C=CC=CC54)C(C)C)[C@@H](O)[C@H]3O)c2n1` (stereo partly shown) [Compound 63], the EC50 under setting [1] is greater than 100 µM. As to `CNc1nc(C)nc2c1c(C(N)=O)cn2[C@@H]1O[C@H](CO)[C@@H](O)[C@H]1O` [Compound 36], the EC50 under setting [1] is greater than 100 µM.

Where the note is “Table 7”, `Cc1nc(N)c2c(C(N)=O)cn([C@@H]3O[C@H](COC(=O)[C@@H](N)C(C)C)[C@@H](O)[C@H]3O)c2n1` [Compound 2] showed an EC50 of 1.9 to 4.15 µM.

Where the note is “Table 7”, `Cc1nc(N)c2c(C(N)=O)cn([C@@H]3O[C@H](COC(=O)[C@H](CC(C)C)NC(=O)OCC4c5ccccc5-c5ccccc54)[C@@H](O)[C@H]3O)c2n1` [Compound 76] displayed an EC50 of 16.4 µM. Turning to `Cc1nc(N)c2c(C#N)cn([C@@H]3O[C@@](CO)(N=[N+]=[N-])[C@@H](O)[C@H]3O)c2n1` [Compound 106], under setting [1], the EC50 was greater than 100 µM. Under setting [1], `Cc1nc(NN)c2c(C(N)=O)cn([C@@H]3O[C@H](CO)[C@@H](O)[C@H]3O)c2n1` [Compound 95] came in with an EC50 greater than 100 µM. The same measure, in the same setting: the same measure for `Cc1nc(N)c2c(C(N)=O)cn([C@@H]3O[C@H](OCP(=O)(O)O)[C@@H](O)[C@H]3O)c2n1` [Compound 70]: greater than 100 µM. Same read-out and setting: the same measure for `Cc1nc(N)c2c(C(N)=O)cn([C@@H]3O[C@H](CO)[C@@H](O)C3(F)F)c2n1` [Compound 40]: greater than 100 µM; for `COC(=N)c1cn([C@@H]2O[C@H](CN=[N+]=[N-])[C@@H](O)[C@H]2O)c2nc(C)nc(N)c12` [Compound 104]: greater than 100 µM.

Under setting [1], `Cc1nc(N)c2c(C(=N)NO)cn([C@@H]3O[C@H](CO)[C@@H](O)[C@H]3O)c2n1` [Compound 85] gave a concentration for a half-maximal effect (EC50) greater than 100 µM. On the same count and under the same terms, the same measure for `Cc1nc(N)c2c(C#N)cn([C@H]3C=C[C@@H](O)O3)c2n1` [Compound 114]: greater than 100 µM. On the same count and under the same terms, in the case of `CCCCCCCCCCCCCCCCOCCCOP(=O)(O)COC[C@H]1O[C@@H](n2cc(C(N)=O)c3c(N)nc(C)nc32)[C@H](O)[C@@H]1O` [Compound 24] it was greater than 20 µM. The same measure, in the same setting: in the case of `C=Cc1c(C(N)=O)c2c(N)nc(C)nc2n1[C@@H]1O[C@H](CO)[C@@H](O)[C@H]1O` [Compound 144] it was greater than 100 µM. As to `Cc1nc(N)c2c(C(N)=O)cn(C3(C)O[C@H](COC(=O)[C@@H](N)C(C)C)[C@@H](O)[C@H]3O)c2n1` (stereo partly shown) [Compound 62], the EC50 under setting [1] is greater than 100 µM.

As to `Cc1nc(O)c2c(C(N)=O)cn([C@@H]3O[C@H](CO)[C@@H](O)[C@H]3O)c2n1` [Compound 7], the EC50 by setting is: under setting [1], 53.8 µM and 38.4 µM; (Table 8, N/A = assayed but no EC50 value could be measured, listed as compound 7) greater than 38 µM. Regarding `NC(=O)c1cn([C@@H]2O[C@H](CO)[C@@H](O)[C@H]2O)c2nc(C(F)(F)F)nc(N)c12` [Compound 26], the EC50 under setting [1] was greater than 100 µM. `CCCCCCCCCCCCCCCCOCCCOC(=O)[C@H](C)NP(=O)(O)OC[C@H]1O[C@@H](n2cc(C(N)=O)c3c(N)nc(C)nc32)[C@H](O)[C@@H]1O` [Compound 143] gave an EC50 (Table 7) of 26.3 µM. In the case of `CCCCCCCCCCCCCCCOCCCOC(=O)C(C)NP(=O)(OCc1ccccc1C)OC[C@H]1O[C@@H](n2cc(C(N)=O)c3c(N)nc(C)nc32)[C@H](O)[C@@H]1O` (stereo partly shown) [Compound 142], under setting [1], the EC50 was greater than 100 µM. On to `Cc1nc(N)c2c(C(N)=O)cn([C@@H]3O[C@H](COP(=O)(N[C@@H](C)C(=O)OC(C)C)Oc4ccccc4)[C@@H](O)[C@H]3O)c2n1` (stereo partly shown) [Compound 132], for which, under setting [1], the EC50 was greater than 100 µM. The same measure, in the same setting: in the case of `Cc1nc(N)c2c(C(N)=O)cn([C@@H]3O[C@H](CO)[C@@H](O)[C@H]3O)c2n1` [Compound 38] it was greater than 100 µM; in that of `Cc1nc(N)c2c(C(N)=O)cn(C[C@H](C)O)c2n1` [Compound 51], greater than 100 µM; in that of `CCOP(=O)(COC[C@H]1O[C@@H](n2cc(C(N)=O)c3c(N)nc(C)nc32)[C@@H]2OC(C)(C)O[C@@H]21)OCC` [Compound 21], greater than 100 µM.

As for `Cc1nc(N)c2ccn([C@@H]3O[C@H](COCc4ccccc4)[C@@H](O)[C@H]3O)c2n1` [Compound 82], under setting [1], the EC50 was greater than 100 µM. For the compound `CCCCCCCCC(=O)Oc1ccc(COP(=O)(OCc2ccc(OC(=O)CCCCCCCC)cc2)OP(=O)(O)OC[C@H]2O[C@@H](n3cc(C(N)=O)c4c(N)nc(C)nc43)[C@H](O)[C@@H]2O)cc1` [Compound 145], where the note is “Table 7”, the EC50 was 7.4 µM.

Compound `CCCCCCCCCCCCCCCCOCCC(=O)OC[C@H]1O[C@@H](n2cc(C(N)=O)c3c(N)nc(C)nc32)[C@H](O)[C@@H]1O` [Compound 4] registered an EC50 (Table 7) of 3.5 µM. This EC50 lies about 2.1-fold lower than the previous one. Regarding `Cc1nc(N)c2c(C(N)=O)cn([C@@H]3O[C@H](CO)[C@@H](O)[C@H]3O)c2[n+]1[O-]` [Compound 8], the EC50 under setting [1] turned out to be 23.6 µM. Still for that read-out and setting: in the case of `Cc1nc(N)c2c(C(N)=O)cn([C@@H]3O[C@H](CO)[C@@H](F)[C@H]3O)c2n1` [Compound 101] it was greater than 100 µM; in that of `Cc1nc(N)c2c(C(N)=O)cn([C@@H]3O[C@H](COCP(=O)(O)O)[C@@H](O)[C@H]3O)c2n1` [Compound 23], greater than 100 µM. For the setting “Table 7”, `Cc1nc(N)c2c(C(N)=O)cn([C@@H]3O[C@H](COC(=O)[C@H](C)N)[C@@H](O)[C@H]3O)c2n1` [Compound 3] registered an EC50 of 2 µM.

The compound `COC(=O)[C@H](C)NP(=O)(OC[C@H]1O[C@@H](n2cc(C(N)=O)c3c(N)nc(C)nc32)[C@H](O)[C@@H]1O)Oc1ccccc1` (stereo partly shown) [Compound 111] gave an EC50 (Table 7) of 21 µM. With `Cc1nc(N)c2c(C(=O)O)cn([C@@H]3O[C@H](COCc4ccccc4)[C@@H](O)[C@H]3O)c2n1` [Compound 33], the EC50 under setting [1] was greater than 100 µM.
